# Reference: article PMC8003416, “Modulation of Human Phenylalanine Hydroxylase by 3-Hydroxyquinolin-2(1H)-One Derivatives” (Biomolecules, 2021)
# Tests used:
# [1] = target: T1, hPAH transiently expressed in HEK-293T cells (Homo sapiens, UniProt P00439); assay: hPAH activity and protein level in transfected HEK-293T cells; format: cell-based; settings: 24 h; for hPAH protein content after translation block / increase in hPAH expression (protein level): 50 μM; for hPAH protein content after translation block: then 10 μg/mL puromycin, 1, 3, 6 h; for increase in hPAH expression (protein level): western blot normalized to GAPDH; for hPAH activity in cell lysate: 50 and 100 μM, vs DMSO
# T1 construct: expressed in transfected cells; host or cells: HEK-293T (ATCC CRL-11268)
# T1 sequence (P00439 1-452): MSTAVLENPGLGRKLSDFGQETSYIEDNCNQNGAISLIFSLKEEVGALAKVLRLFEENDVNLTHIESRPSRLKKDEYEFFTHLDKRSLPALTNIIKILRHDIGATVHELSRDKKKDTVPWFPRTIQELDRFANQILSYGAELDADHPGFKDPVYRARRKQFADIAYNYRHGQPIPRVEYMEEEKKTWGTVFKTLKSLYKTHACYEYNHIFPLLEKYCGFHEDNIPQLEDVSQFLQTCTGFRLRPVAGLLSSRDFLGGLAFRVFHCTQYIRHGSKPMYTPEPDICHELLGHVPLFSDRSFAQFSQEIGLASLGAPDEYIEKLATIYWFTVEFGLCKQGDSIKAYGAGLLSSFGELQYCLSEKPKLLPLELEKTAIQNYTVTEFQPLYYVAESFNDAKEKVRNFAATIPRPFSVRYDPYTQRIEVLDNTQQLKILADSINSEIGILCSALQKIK
# Protocol: HEK-293T cells (ATCC CRL-11268) were grown in RPMI 1640 medium (Gibco Life Technologies¸ Carlsbad, CA, USA) and supplemented with heat inactivated (60 °C for 30 min) fetal bovine serum (10%; v/v), penicillin (100 U/mL) and streptomycin (0.1 mg/mL) at 37 °C, in 5% CO2 in a humidified atmosphere. 1 × 10^5 cells were transfected with 750 ng of DNA (eukaryotic vector expressing hPAH; pEF-DEST51-PAH-WT) using lipofectamine (Invitrogen) as the transfection agent. Compounds (50 and 100 μM) or DMSO (0.5 and 1%) were added 4 h after transfection, and cells were further incubated for 24 h. For sample collection cells were trypsinized with 500 μL of TripLE Express (Gibco Life Technologies), centrifuged at 200× g for 5 min, at 4 °C, and washed with PBS. The pellet was resuspended in 50 μL of PBS with 200 μM PMSF and cells were disrupted by passage (≈20×) through a fine needle. The cell debris were removed by centrifugation at 14,000× g for 5 min at 4 °C and the obtained cell lysates were used for enzymatic activity assays and western blot analysis. Three independent cell cultures were performed.
# For the stability assays, after 24 h incubation with compounds, protein translation was stopped by the addition of 10 μg/mL puromycin (Sigma-Aldrich). Cells were collected at 0, 1, 3, and 6 h after blockage of translation. Two independent cell cultures were performed.
# The hPAH activity of cell lysates was measured essentially as described in [26] in a final volume of 200 μL containing 1 mM L-Phe, 250 mM Na-Hepes, pH 7, 0.1 mg/mL catalase and 20 μL of cell lysate. After 4 min of pre-incubation, 100 μM (NH4)2Fe(II)SO4 was added to the mixture. Two min after ferrous ammonium sulphate addition, the reaction was initiated by the injection of BH4 (75 μM). Tyrosine production was assessed by measuring the increase in fluorescence intensity (λexc 274 nm and λem 304 nm) in a FLUOstar Omega microplate reader (BMG Labtech), at 25 °C, during 30 min. Enzyme activity was determined as the amount of L-Tyr produced per min per mg of total protein. For each cell culture enzymatic assays were performed in triplicate.
# For western blot analysis of cell lysates, 4 μg of total protein were applied on an 8 to 16% mini-protean TGX precast polyacrylamide gel (Bio-Rad), and the proteins were transferred to a polyvinylidene fluoride (PVDF; GE Healthcare) membrane and visualized by immunodetection using mouse anti-PAH (MAB 5278; Millipore; Burlington, MA, USA) and mouse anti-glyceraldehyde 3-phosphate dehydrogenase (GAPDH (loading control); sc-365062, Santa Cruz Biotechnology; Dallas, TX, USA) as the primary antibodies and the anti-mouse IgG-HRP (W402B, Promega; Madison, WI, USA) as the secondary antibody. Immunoblots were developed with enhanced chemiluminescent agents (ECL Prime; GE Healthcare) and the images were acquired in a charge-coupled device imager ChemiDoc XRS (Bio-Rad) using the Quantity One software (Bio-Rad).
# HEK-293T cells = assay: Propidium iodide exclusion assay (membrane integrity); format: cell-based; settings: 100 μM, 24 h; negative control 1.0 ± 0.1
# Protocol: Cytotoxicity of selected 3HQs was assessed in HEK-293T cells using the Alamar Blue assay as a general cell viability endpoint method that monitors the cellular metabolic state, and the propidium iodide (PI) exclusion assay was used to evaluate membrane integrity essentially as described. The 3HQs were tested at a final concentration of 50 and 100 μM (two independent assays; five replicates each). Control assays were performed using 1% DMSO (negative control), or SDS at 1 mg/mL as a positive control of cell death in the PI assay. […] The culture medium was replaced by fresh medium (supplemented as above) containing the different 3HQs to be analyzed. After 24 h incubation, the culture medium was replaced by […] PI (Sigma-Aldrich) in fresh medium (stock solution 1.5 mM in DMSO) and fluorescence was measured (λexc 485 nm, λem 590 nm) in a FLUOstar Omega microplate reader. […] The cells were further incubated for 3 h and fluorescence was measured (λexc 530 nm, λem 590 nm) in a FLUOstar Omega microplate reader (BMG Labtech). The relative PI uptake and cell viability (%) were calculated using Equations (3) and (4), respectively. Relative PI uptake = Fluorescence intensitysample/Fluorescence intensitynegative control(3) Relative cell viability (%) = Fluorescence intensitysample/Fluorescence intensitycontrol × 100(4)
Compound,hPAH protein content after translation block [1],increase in hPAH expression (protein level) [1],hPAH activity in cell lysate [1],relative PI uptake (HEK-293T cells)
COC(=O)CC[C@H](NC(=O)c1c(O)c(=O)[nH]c2ccc(OC(F)(F)F)cc12)C(=O)OC [Compound 9],hPAH protein content is maintained as a function of time,1.8 fold,higher activity,1.0 ± 0.0
COC(=O)CNC(=O)c1c(O)c(=O)[nH]c2ccc(OC(F)(F)F)cc12 [Compound 11],hPAH protein content is maintained as a function of time,did not affect the hPAH protein levels,higher activity,1.0 ± 0.1
